Measured values: patent US20260183295A1, “METHODS AND COMPOSITIONS FOR TREATING CANCER” (Onconova Therapeutics, Inc., priority 2022, published 2026)

Key:
AP2A1 = biological target: T1, AP2A1 (Homo sapiens, UniProt O95782); test: CETSA-MS, MDA-MB-231 intact cells; type: cell-based; details: 2 μM and 20 μM
T1 construct: endogenous in cells; host or cells: MDA-MB-231
In short: (§1)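 MS-based cellular thermal shift in live MDA-MB-231: incubate, heat across gradient, lyse, keep soluble fraction, precipitate, digest, label, run proteomics.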

SNX30 = biological target: T2, SNX30 (Homo sapiens, UniProt Q5VWJ9); test: CETSA-MS, MDA-MB-231 intact cells; type: cell-based; details: 2 μM and 20 μM
T2 construct: endogenous in cells; host or cells: MDA-MB-231
In short: as §1

SMU1 = biological target: T3, SMU1 (Homo sapiens, UniProt Q2TAY7); test: CETSA-MS, MDA-MB-231 intact cells; type: cell-based; details: 2 μM and 20 μM
T3 construct: endogenous in cells; host or cells: MDA-MB-231
In short: as §1

AAK1 = biological target: T4, AAK1 (Homo sapiens, UniProt Q2M2I8); test: CETSA-MS, MDA-MB-231 intact cells; type: cell-based; details: 2 μM and 20 μM
T4 construct: endogenous in cells; host or cells: MDA-MB-231
In short: as §1

MICALL2 = biological target: T5, MICALL2 (Homo sapiens, UniProt Q8IY33); test: CETSA-MS, MDA-MB-231 intact cells; type: cell-based; details: 2 μM and 20 μM
T5 construct: endogenous in cells; host or cells: MDA-MB-231
In short: as §1

STX5 = biological target: T6, STX5 (Homo sapiens, UniProt Q13190); test: CETSA-MS, MDA-MB-231 intact cells; type: cell-based; details: 2 μM and 20 μM
T6 construct: endogenous in cells; host or cells: MDA-MB-231
In short: as §1

CSNK2A2 = biological target: T7, CSNK2A2 (Homo sapiens, UniProt P19784); test: CETSA-MS, MDA-MB-231 intact cells; type: cell-based; details: 2 μM and 20 μM
T7 construct: 148 targets unique to Compound 1 in MDA-MB-231 intact cells; endogenous in cells; host or cells: MDA-MB-231
In short: as §1

SYNCRIP = biological target: T8, SYNCRIP (Homo sapiens, UniProt O60506); test: CETSA-MS, MDA-MB-231 intact cells; type: cell-based; details: 2 μM and 20 μM
T8 construct: endogenous in cells; host or cells: MDA-MB-231
In short: as §1

CDK17 = biological target: T9, CDK17 (Homo sapiens, UniProt Q00537); test: CETSA-MS, MDA-MB-231 intact cells; type: cell-based; details: 2 μM and 20 μM
T9 construct: endogenous in cells; host or cells: MDA-MB-231
In short: as §1

AP2S1 = biological target: T10, AP2S1 (Homo sapiens, UniProt P53680); test: CETSA-MS, MDA-MB-231 intact cells; type: cell-based; details: 2 μM and 20 μM
T10 construct: endogenous in cells; host or cells: MDA-MB-231
In short: as §1

PTX3 = biological target: T11, PTX3 (Homo sapiens, UniProt P26022); test: CETSA-MS, MDA-MB-231 intact cells; type: cell-based; details: 2 μM and 20 μM
T11 construct: endogenous in cells; host or cells: MDA-MB-231
In short: as §1

LMAN2 = biological target: T12, LMAN2 (Homo sapiens, UniProt Q12907); test: CETSA-MS, MDA-MB-231 intact cells; type: cell-based; details: 2 μM and 20 μM
T12 construct: endogenous in cells; host or cells: MDA-MB-231
In short: as §1

PUS7L = biological target: T13, PUS7L (Homo sapiens, UniProt Q9H0K6); test: CETSA-MS, MDA-MB-231 intact cells; type: cell-based; details: 2 μM and 20 μM
T13 construct: endogenous in cells; host or cells: MDA-MB-231
In short: as §1

CRAT = biological target: T14, CRAT (Homo sapiens, UniProt P43155); test: CETSA-MS, MDA-MB-231 intact cells; type: cell-based; details: 2 μM and 20 μM
T14 construct: 148 targets unique to Compound 1 in MDA-MB-231 intact cells; endogenous in cells; host or cells: MDA-MB-231
In short: as §1

CPD = biological target: T15, CPD (Homo sapiens, UniProt O75976); test: CETSA-MS, MDA-MB-231 intact cells; type: cell-based; details: 2 μM and 20 μM
T15 construct: 148 targets unique to Compound 1 in MDA-MB-231 intact cells; endogenous in cells; host or cells: MDA-MB-231
In short: as §1

GSK3A = biological target: T16, GSK3A (Homo sapiens, UniProt P49840); test: CETSA-MS, MDA-MB-231 intact cells; type: cell-based; details: 2 μM and 20 μM
T16 construct: endogenous in cells; host or cells: MDA-MB-231
In short: as §1

FASTKD5 = biological target: T17, FASTKD5 (Homo sapiens, UniProt Q7L8L6); test: CETSA-MS, MDA-MB-231 intact cells; type: cell-based; details: 2 μM and 20 μM
T17 construct: 148 targets unique to Compound 1 in MDA-MB-231 intact cells; endogenous in cells; host or cells: MDA-MB-231
In short: as §1

AIFM2 = biological target: T18, AIFM2 (Homo sapiens, UniProt Q9BRQ8); test: CETSA-MS, MDA-MB-231 intact cells; type: cell-based; details: 2 μM and 20 μM
T18 construct: endogenous in cells; host or cells: MDA-MB-231
In short: as §1

PRPF4B = biological target: T19, PRPF4B (Homo sapiens, UniProt Q13523); test: CETSA-MS, MDA-MB-231 intact cells; type: cell-based; details: 2 μM and 20 μM
T19 construct: endogenous in cells; host or cells: MDA-MB-231
In short: as §1

LOXL2 = biological target: T20, LOXL2 (Homo sapiens, UniProt Q9Y4K0); test: CETSA-MS, MDA-MB-231 intact cells; type: cell-based; details: 2 μM and 20 μM
T20 construct: endogenous in cells; host or cells: MDA-MB-231
In short: as §1

CDK12 = biological target: T21, CDK12 (Homo sapiens, UniProt Q9NYV4); test: CETSA-MS, MDA-MB-231 intact cells; type: cell-based; details: 2 μM and 20 μM
T21 construct: endogenous in cells; host or cells: MDA-MB-231
In short: as §1

HSPA13 = biological target: T22, HSPA13 (Homo sapiens, UniProt P48723); test: CETSA-MS, MDA-MB-231 intact cells; type: cell-based; details: 2 μM and 20 μM
T22 construct: endogenous in cells; host or cells: MDA-MB-231
In short: as §1

BOD1L1 = biological target: T23, BOD1L1 (Homo sapiens, UniProt Q8NFC6); test: CETSA-MS, MDA-MB-231 intact cells; type: cell-based; details: 2 μM and 20 μM
T23 construct: endogenous in cells; host or cells: MDA-MB-231
In short: as §1

MAP2K5 = biological target: T24, MAP2K5 (Homo sapiens, UniProt Q13163); test: CETSA-MS, MDA-MB-231 intact cells; type: cell-based; details: 2 μM and 20 μM
T24 construct: endogenous in cells; host or cells: MDA-MB-231
In short: as §1

TAF15 = biological target: T25, TAF15 (Homo sapiens, UniProt Q92804); test: CETSA-MS, MDA-MB-231 intact cells; type: cell-based; details: 2 μM and 20 μM
T25 construct: endogenous in cells; host or cells: MDA-MB-231
In short: as §1

WTAP = biological target: T26, WTAP (Homo sapiens, UniProt Q15007); test: CETSA-MS, MDA-MB-231 intact cells; type: cell-based; details: 2 μM and 20 μM
T26 construct: endogenous in cells; host or cells: MDA-MB-231
In short: as §1

CDK4/cyclin D1 = CDK4/cyclin D1 (Homo sapiens, UniProt P11802); test: CDK4/cyclin D1 In Vitro Kd, kinase binding assay (qPCR)
Experimental: Kinase-tagged T7 phage strains were prepared in an E. coli host derived from the BL21 strain. E. coli were grown to log-phase and infected with T7 phage and incubated with shaking at 32° C. until lysis. […] The remaining kinases were produced in HEK-293 cells and subsequently tagged with DNA for qPCR detection. […] The liganded beads were blocked with excess biotin and washed with blocking buffer (SeaBlock (Pierce), 1% BSA, 0.05% Tween 20, 1 mM DTT) to remove unbound ligand and to reduce non-specific binding. […] Test compounds were prepared as 111× stocks in 100% DMSO. Kds were determined using an 11-point 3-fold compound dilution series with three DMSO control points. […] The compounds were then diluted directly into the assays such that the final concentration of DMSO was 0.9%. All reactions performed in polypropylene 384-well plate. Each was a final volume of 0.02 ml. […] The kinase concentration in the eluates was measured by qPCR. […] Curves were fitted using a non-linear least square fit with the Levenberg-Marquardt algorithm.

p21 = test: Western blot, MDA-MB-231 cells, 24 hours; type: cell-based; details: 2.5, 5, 10 μM, versus Comparator 1, 2 and 4

T5 sequence (Q8IY33 whole entry): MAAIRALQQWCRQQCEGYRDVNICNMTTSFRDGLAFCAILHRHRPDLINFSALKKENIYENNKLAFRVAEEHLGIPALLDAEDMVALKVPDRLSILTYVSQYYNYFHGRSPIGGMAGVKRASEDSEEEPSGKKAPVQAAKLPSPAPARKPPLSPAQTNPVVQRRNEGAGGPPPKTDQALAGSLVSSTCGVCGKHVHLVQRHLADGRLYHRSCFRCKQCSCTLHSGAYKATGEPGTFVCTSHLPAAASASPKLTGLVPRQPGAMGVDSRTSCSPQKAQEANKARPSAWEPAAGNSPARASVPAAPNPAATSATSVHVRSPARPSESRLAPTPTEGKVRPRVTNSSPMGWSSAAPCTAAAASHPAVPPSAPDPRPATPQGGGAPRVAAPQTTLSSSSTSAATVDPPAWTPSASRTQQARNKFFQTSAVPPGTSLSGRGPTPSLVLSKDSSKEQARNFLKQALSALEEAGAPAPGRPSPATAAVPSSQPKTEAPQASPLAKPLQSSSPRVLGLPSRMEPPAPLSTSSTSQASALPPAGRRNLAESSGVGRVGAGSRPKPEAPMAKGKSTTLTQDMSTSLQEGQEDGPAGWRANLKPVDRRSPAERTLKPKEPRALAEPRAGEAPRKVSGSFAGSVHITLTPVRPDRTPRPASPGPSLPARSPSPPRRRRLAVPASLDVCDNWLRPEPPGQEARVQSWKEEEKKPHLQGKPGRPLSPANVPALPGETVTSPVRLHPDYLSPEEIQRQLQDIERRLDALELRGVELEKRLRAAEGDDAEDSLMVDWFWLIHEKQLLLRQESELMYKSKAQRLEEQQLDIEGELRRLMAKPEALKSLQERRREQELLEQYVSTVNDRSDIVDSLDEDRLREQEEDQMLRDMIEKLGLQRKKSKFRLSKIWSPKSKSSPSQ
T19 sequence (Q13523 whole entry): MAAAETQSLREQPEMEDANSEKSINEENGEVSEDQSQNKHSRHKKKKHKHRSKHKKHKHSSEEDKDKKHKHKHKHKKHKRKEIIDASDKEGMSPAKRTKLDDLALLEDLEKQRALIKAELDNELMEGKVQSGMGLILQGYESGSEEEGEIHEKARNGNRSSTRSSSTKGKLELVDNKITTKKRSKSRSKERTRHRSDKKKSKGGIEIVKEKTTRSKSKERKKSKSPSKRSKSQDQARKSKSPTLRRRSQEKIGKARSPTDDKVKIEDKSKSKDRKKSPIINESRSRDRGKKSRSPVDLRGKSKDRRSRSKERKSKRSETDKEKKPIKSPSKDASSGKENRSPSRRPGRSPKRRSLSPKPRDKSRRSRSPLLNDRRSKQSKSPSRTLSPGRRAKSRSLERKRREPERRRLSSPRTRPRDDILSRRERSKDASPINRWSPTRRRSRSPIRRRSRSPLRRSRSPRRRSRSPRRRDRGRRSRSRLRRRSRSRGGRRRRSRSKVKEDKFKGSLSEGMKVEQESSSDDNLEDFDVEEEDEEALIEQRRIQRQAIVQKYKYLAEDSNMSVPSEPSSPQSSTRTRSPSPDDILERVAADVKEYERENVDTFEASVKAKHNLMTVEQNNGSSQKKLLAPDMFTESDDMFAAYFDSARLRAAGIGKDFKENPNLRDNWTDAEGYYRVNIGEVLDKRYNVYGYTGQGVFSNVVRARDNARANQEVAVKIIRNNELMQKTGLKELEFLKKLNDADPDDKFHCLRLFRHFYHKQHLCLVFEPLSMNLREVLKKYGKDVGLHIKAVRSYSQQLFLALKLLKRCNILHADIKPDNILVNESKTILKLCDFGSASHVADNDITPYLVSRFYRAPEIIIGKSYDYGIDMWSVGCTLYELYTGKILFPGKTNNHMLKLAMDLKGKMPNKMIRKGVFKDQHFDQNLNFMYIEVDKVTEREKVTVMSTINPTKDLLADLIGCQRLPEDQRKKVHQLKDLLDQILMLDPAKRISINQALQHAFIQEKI
T18 sequence (Q9BRQ8 whole entry): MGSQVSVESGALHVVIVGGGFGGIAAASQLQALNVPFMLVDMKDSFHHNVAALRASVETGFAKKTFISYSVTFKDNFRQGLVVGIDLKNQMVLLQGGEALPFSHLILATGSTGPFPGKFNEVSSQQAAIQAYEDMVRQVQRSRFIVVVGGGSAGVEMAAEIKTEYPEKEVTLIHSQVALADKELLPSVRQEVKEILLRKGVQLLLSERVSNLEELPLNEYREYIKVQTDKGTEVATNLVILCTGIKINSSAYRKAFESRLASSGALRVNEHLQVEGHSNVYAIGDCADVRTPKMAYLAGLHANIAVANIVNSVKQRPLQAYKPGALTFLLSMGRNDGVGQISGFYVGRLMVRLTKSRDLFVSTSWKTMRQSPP
Sequence of CDK4/cyclin D1 (P11802 whole entry): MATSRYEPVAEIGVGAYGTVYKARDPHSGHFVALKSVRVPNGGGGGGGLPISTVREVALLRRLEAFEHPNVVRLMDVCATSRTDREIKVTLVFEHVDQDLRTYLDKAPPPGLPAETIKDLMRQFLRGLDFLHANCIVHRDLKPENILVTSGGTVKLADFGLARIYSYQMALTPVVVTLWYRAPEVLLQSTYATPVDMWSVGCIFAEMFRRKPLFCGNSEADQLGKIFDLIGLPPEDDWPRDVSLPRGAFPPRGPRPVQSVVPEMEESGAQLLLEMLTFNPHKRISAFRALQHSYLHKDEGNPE
Sequence of CDK4/cyclin D1 (P24385 whole entry partner): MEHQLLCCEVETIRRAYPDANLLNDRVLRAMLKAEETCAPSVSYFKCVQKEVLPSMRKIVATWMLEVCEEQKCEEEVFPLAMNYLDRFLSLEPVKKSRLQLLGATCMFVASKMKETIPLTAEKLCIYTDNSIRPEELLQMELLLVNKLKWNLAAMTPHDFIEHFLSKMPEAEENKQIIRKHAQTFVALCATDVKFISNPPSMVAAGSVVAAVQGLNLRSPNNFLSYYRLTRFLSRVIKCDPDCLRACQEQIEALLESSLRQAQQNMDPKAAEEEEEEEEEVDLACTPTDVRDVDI
T7 sequence (P19784 whole entry): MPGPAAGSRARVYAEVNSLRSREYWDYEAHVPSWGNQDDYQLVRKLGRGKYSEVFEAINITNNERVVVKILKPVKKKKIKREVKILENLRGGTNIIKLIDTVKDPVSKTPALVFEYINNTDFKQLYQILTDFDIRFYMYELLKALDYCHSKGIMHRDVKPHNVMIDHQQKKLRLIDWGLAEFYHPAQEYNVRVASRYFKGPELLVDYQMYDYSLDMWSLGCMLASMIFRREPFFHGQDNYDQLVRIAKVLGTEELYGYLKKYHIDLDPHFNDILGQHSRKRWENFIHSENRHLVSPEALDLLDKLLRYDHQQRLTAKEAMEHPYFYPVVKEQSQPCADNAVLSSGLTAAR
T9 sequence (Q00537 whole entry): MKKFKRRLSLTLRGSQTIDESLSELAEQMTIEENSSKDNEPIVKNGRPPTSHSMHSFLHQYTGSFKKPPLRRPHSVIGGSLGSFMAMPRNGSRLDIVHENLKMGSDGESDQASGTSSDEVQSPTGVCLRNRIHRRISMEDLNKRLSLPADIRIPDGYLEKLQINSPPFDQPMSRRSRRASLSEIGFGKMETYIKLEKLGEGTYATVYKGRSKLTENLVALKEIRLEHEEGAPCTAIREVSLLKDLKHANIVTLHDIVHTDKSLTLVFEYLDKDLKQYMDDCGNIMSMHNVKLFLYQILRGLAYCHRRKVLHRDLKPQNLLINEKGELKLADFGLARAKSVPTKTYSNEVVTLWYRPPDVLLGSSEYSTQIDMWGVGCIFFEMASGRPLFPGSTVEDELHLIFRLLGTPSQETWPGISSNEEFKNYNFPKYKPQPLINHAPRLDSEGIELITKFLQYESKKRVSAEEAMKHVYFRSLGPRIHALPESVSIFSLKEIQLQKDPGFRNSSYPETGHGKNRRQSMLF
T25 sequence (Q92804 whole entry): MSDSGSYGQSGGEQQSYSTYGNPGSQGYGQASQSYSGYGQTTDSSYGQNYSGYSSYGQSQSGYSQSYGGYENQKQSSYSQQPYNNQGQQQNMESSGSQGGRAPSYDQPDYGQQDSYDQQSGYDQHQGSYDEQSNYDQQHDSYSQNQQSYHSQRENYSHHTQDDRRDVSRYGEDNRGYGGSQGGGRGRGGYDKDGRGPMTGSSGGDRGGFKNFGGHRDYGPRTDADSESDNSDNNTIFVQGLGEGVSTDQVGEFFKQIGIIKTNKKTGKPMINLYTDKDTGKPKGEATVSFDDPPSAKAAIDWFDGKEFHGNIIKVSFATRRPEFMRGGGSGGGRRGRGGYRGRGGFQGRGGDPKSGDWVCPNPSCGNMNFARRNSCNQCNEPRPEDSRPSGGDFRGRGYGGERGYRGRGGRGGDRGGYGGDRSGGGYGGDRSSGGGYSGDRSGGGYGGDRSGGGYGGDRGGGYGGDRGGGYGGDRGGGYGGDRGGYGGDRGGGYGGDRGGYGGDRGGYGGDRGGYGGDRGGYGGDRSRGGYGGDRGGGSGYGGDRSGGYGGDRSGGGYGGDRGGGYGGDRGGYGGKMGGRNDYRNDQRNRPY
T2 sequence (Q5VWJ9 whole entry): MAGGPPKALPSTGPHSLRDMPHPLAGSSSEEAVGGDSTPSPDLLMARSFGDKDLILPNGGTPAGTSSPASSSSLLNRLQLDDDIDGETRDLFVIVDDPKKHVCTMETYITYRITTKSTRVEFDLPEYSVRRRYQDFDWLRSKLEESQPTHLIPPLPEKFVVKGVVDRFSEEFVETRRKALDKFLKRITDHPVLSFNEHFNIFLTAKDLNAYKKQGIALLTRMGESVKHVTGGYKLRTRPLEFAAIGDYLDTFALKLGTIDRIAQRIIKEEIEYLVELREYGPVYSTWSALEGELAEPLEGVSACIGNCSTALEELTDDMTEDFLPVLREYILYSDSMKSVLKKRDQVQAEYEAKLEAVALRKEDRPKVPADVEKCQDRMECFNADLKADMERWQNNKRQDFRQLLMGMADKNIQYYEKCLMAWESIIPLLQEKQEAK

CN1CCN(c2ccc(Nc3ncc4cc(C#N)c(=O)n(C5CCCC5)c4n3)cc2)CC1 [Compound 1, 8-cyclopentyl-2-((4-(4-methylpiperazin-1-yl)phenyl)amino)-7-oxo-7,8-dihydropyrido[2,3-d]pyrimidine-6-carbonitrile]
Group (CETSA-MS thermal shift) (AP2A1): Destabilization | Group (CETSA-MS thermal shift) (SNX30): Destabilization | Group (CETSA-MS thermal shift) (SMU1): Stabilization | Group (CETSA-MS thermal shift) (AAK1): Stabilization | Group (CETSA-MS thermal shift) (MICALL2): Destabilization | Group (CETSA-MS thermal shift) (STX5): Stabilization | Group (CETSA-MS thermal shift) (CSNK2A2): Stabilization | Group (CETSA-MS thermal shift) (SYNCRIP): Stabilization | Group (CETSA-MS thermal shift) (CDK17): Stabilization | Group (CETSA-MS thermal shift) (AP2S1): Destabilization | Group (CETSA-MS thermal shift) (PTX3): Stabilization | Group (CETSA-MS thermal shift) (LMAN2): Stabilization | Group (CETSA-MS thermal shift) (PUS7L): Destabilization | Group (CETSA-MS thermal shift) (CRAT): Stabilization | Group (CETSA-MS thermal shift) (CPD): Stabilization | Group (CETSA-MS thermal shift) (GSK3A): Stabilization | Group (CETSA-MS thermal shift) (FASTKD5): Stabilization | Group (CETSA-MS thermal shift) (AIFM2): Destabilization | Group (CETSA-MS thermal shift) (PRPF4B): Stabilization | Group (CETSA-MS thermal shift) (LOXL2): Stabilization | Group (CETSA-MS thermal shift) (CDK12): Destabilization | Group (CETSA-MS thermal shift) (HSPA13): Stabilization | Group (CETSA-MS thermal shift) (BOD1L1): Destabilization | Group (CETSA-MS thermal shift) (MAP2K5): Destabilization | Group (CETSA-MS thermal shift) (TAF15): Stabilization | Group (CETSA-MS thermal shift) (WTAP): Stabilization | Kd (CDK4/cyclin D1): 0.18 nM | p21 levels (p21): decreasing
